Measurements taken from patent US9365583B2, “Substituted pyrazoles and uses thereof” (Genentech, Inc., priority 2013, dated 2016).

biological target: T1, N-terminally GST-tagged DLK (catalytic domain amino acid 1-520) (Homo sapiens, UniProt Q12852); assay: DLK TR-FRET inhibition assay; format: biochemical; details: 5 nM GST-DLK, 40 nM HIS-MKK4 K131M substrate, 30 μM ATP, 60 minutes at ambient temperature
T1 construct: N-terminally GST-tagged DLK (catalytic domain amino acid 1-520); purchased Carna Bioscience
T1 sequence (Q12852 1-520): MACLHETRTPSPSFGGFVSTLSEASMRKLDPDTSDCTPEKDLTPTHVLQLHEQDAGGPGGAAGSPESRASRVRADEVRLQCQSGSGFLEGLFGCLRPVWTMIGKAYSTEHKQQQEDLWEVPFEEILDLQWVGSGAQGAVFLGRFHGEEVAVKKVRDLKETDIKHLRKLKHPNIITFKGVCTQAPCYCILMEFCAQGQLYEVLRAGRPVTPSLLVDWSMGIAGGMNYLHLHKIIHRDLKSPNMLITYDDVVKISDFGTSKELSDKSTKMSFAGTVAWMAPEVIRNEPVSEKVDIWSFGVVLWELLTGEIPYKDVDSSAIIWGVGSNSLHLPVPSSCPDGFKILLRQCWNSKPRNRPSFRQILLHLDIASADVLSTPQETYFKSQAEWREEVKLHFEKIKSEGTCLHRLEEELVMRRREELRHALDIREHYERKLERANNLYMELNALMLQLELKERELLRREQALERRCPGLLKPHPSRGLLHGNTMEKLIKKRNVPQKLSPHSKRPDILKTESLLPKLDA
Outline: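 5 nM GST-DLK (aa 1-520), 40 nM HIS-MKK4 K131M and 30 μM ATP reacted 60 min at ambient temperature in HEPES pH 7.5 buffer with 10 mM MgCl2, compound 1:3 serially diluted from 20 uM. TR-FRET detection of phospho-MKK4 used Eu-cryptate anti-phospho-MKK4 plus D2 anti-HIS, read after 3 h (665/615 nm).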

Compound | Ki
CC(C)n1nc(-c2cnc(N)c(C(F)(F)F)c2)cc1[C@H]1[C@@H]2C[C@H](N3CCOCC3)C[C@@H]21 [compound 52, 5-(1-isopropyl-5-((1R,3r,5S,6r)-3-morpholinobicyclo[3.1.0]hexan-6-yl)-1H-pyrazol-3-yl)-3-(trifluoromethyl)pyridin-2-amine] | 3.97 nM
CC(C)n1nc(-c2cnc(N)c(OC(F)(F)F)c2)cc1[C@H]1[C@@H]2C[C@H](N3CC(F)(F)C3)C[C@@H]21 [compound 53, 5-(5-((1R,3r,5S,6r)-3-(3,3-difluoro-azetidin-1-yl)bicyclo[3.1.0]hexan-6-yl)-1-isopropyl-1H-pyrazol-3-yl)-3-(trifluoromethoxy) pyridin-2-amine] | 4.72 nM
CC(C)n1nc(-c2cnc(N)c(C(F)(F)F)c2)cc1[C@H]1[C@@H]2C[C@H](N3CC(F)(F)C3)C[C@@H]21 [compound 54, 5-(5-((1R,3r,5S,6r)-3-(3,3-difluoro-azetidin-1-yl)bicyclo[3.1.0]hexan-6-yl)-1-isopropyl-1H-pyrazol-3-yl)-3-(trifluoromethyl) pyridin-2-amine] | 7.68 nM
CC(C)n1nc(-c2cnc(N)c(C(F)(F)F)c2)cc1[C@H]1[C@@H]2C[C@H](N3C[C@H]4C[C@@H]3CO4)C[C@@H]21 [compound 55, 5-(5-((1R,3r,5S,6R)-3-((1R,4R)-2-oxa-5-azabicyclo[2.2.1]heptan-5-yl)bicyclo[3.1.0]hexan-6-yl)-1-isopropyl-1H-pyrazol-3-yl)-3-(trifluoromethyl)pyridin-2-amine] | 5.4 nM
CC(C)n1nc(-c2cnc(N)c(OC(F)(F)F)c2)cc1[C@H]1[C@@H]2C[C@H](N3C[C@H]4C[C@@H]3CO4)C[C@@H]21 [compound 56, 5-(5-((1R,3r,5S,6R)-3-((1R,4R)-2-oxa-5-azabicyclo[2.2.1]heptan-5-yl)bicyclo[3.1.0]hexan-6-yl)-1-isopropyl-1H-pyrazol-3-yl)-3-(trifluoromethoxy)pyridin-2-amine] | 4.81 nM
CC(C)n1nc(-c2cnc(N)c(OC(F)(F)F)c2)cc1[C@H]1[C@@H]2C[C@H](N3CC4(COC4)C3)C[C@@H]21 [compound 57, 5-(5-((1R,3r,5S,6r)-3-(2-oxa-6-azaspiro[3.3]heptan-6-yl)bicyclo [3.1.0]hexan-6-yl)-1-isopropyl-1H-pyrazol-3-yl)-3-(trifluoro-methoxy)pyridin-2-amine] | 1.88 nM
CC(C)n1nc(-c2cnc(N)c(OC(F)(F)F)c2)cc1[C@H]1[C@@H]2C[C@@H](N3CC4(COC4)C3)C[C@@H]21 [compound 58, 5-(5-((1R,3s,5S,6r)-3-(2-oxa-6-azaspiro[3.3]heptan-6-yl)bicyclo [3.1.0]hexan-6-yl)-1-isopropyl-1H-pyrazol-3-yl)-3-(trifluoromethoxy)pyridin-2-amine] | 1.86 nM
CC(C)n1nc(-c2cnc(N)c(C(F)(F)F)c2)cc1[C@H]1[C@@H]2C[C@H](N3CCOC3=O)C[C@@H]21 [compound 59, 3-((1R,3r,5S,6r)-6-(3-(6-amino-5-(trifluoromethyl)pyridin-3-yl)-1-isopropyl-1H-pyrazol-5-yl)bicyclo[3.1.0]hexan-3-yl) oxazolidin-2-one] | 3.06 nM
COC1CN([C@H]2C[C@@H]3[C@H](C2)[C@H]3c2cc(-c3cnc(N)c(OC(F)F)c3)nn2C(C)C)C1 [compound 61, 3-(difluoromethoxy)-5-(1-isopropyl-5-((1R,3r,5S,6r)-3-(3-methoxy-azetidin-1-yl)bicyclo[3.1.0]hexan-6-yl)-1H-pyrazol-3-yl) pyridin-2-amine] | 3.05 nM
COC1CN([C@@H]2C[C@@H]3[C@H](C2)[C@H]3c2cc(-c3cnc(N)c(OC(F)F)c3)nn2C(C)C)C1 [compound 62, 3-(difIuoromethoxy)-5-(1-isopropyl-5-((1R,3s,5S,6r)-3-(3-methoxy-azetidin-1-yl)bicyclo[3.1.0]hexan-6-yl)-1H-pyrazol-3-yl) pyridin-2-amine] | 2.73 nM
CC(C)n1nc(-c2cnc(N)c(C(F)(F)F)c2)cc1[C@H]1[C@@H]2C[C@H](N3CCN(C)CC3)C[C@@H]21 [compound 63, 5-(1-isopropyl-5-((1R,3r,5S,6r)-3-(4-methylpiperazin-1-yl)bicyclo [3.1.0]hexan-6-yl)-1H-pyrazol-3-yl)-3-(trifluoromethyl)pyridin-2-amine] | 2.21 nM
CC(C)n1nc(-c2cnc(N)c(OC(F)(F)F)c2)cc1[C@H]1[C@@H]2C[C@H](N3CCN(C)CC3)C[C@@H]21 [compound 64, 5-(1-isopropyl-5-((1R,3r,5S,6r)-3-(4-methylpiperazin-1-yl)bicyclo [3.1.0]hexan-6-yl)-1H-pyrazol-3-yl)-3-(trifluoromethoxy) pyridin-2-amine] | 0.763 nM
CC(C)n1nc(-c2cnc(N)c(C(F)(F)F)c2)cc1[C@H]1[C@@H]2C[C@H](N3CC4(COC4)C3)C[C@@H]21 [compound 65, 5-(5-((1R,3r,5S,6r)-3-(2-oxa-6-azaspiro[3.3]heptan-6-yl)bicyclo [3.1.0]hexan-6-yl)-1-isopropyl-1H-pyrazol-3-yl)-3-(trifluoro-methyl)pyridin-2-amine] | 1.13 nM
CC(C)n1nc(-c2cnc(N)c(OC(F)(F)F)c2)cc1[C@H]1[C@@H]2C[C@@H](N3CCN(C)CC3)C[C@@H]21 [compound 66, 5-(1-isopropyl-5-((1R,3s,5S,6r)-3-(4-methylpiperazin-1-yl)bicyclo [3.1.0]hexan-6-yl)-1H-pyrazol-3-yl)-3-(trifluoromethoxy) pyridin-2-amine] | 2.26 nM
CC(C)n1nc(-c2cnc(N)c(C(F)(F)F)c2)cc1[C@H]1[C@@H]2C[C@@H](N3CCN(C)CC3)C[C@@H]21 [compound 67, 5-(1-isopropyl-5-((1R,3s,5S,6r)-3-(4-methylpiperazin-1-yl)bicyclo [3.1.0]hexan-6-yl)-1H-pyrazol-3-yl)-3-(trifluoromethyl)pyridin-2-amine] | 3.93 nM
CC(C)n1nc(-c2cnc(N)c(OC(F)(F)F)c2)cc1[C@H]1[C@@H]2C[C@@H](N3CCOCC3)C[C@@H]21 [compound 68, 5-(1-isopropyl-5-((1R,3s,5S,6r)-3-morpholinobicyclo[3.1.0]hexan-6-yl)-1H-pyrazol-3-yl)-3-(trifluoromethoxy)pyridin-2-amine] | 1.2 nM
CC(C)n1nc(-c2cnc(N)c(OC(F)(F)F)c2)cc1[C@H]1[C@@H]2C[C@H](N3CCOCC3)C[C@@H]21 [compound 69, 5-(1-isopropyl-5-((1R,3r,5S,6r)-3-morpholinobicyclo[3.1.0]hexan-6-yl)-1H-pyrazol-3-yl)-3-(trifluoromethoxy)pyridin-2-amine] | 2.97 nM
CC(C)n1nc(-c2cnc(N)c(C(F)(F)F)c2)cc1[C@H]1[C@@H]2C[C@H](N3CC(C#N)C3)C[C@@H]21 [compound 70, 1-((1R,3r,5S,6r)-6-(3-(6-amino-5-(trifIuoromethyl)pyridin-3-yl)-1-isopropyl-1H-pyrazol-5-yl)bicyclo[3.1.0]hexan-3-yl)azetidine-3-carbonitrile] | 2.9 nM
CC(C)n1nc(-c2cnc(N)c(OC(F)(F)F)c2)cc1[C@H]1[C@@H]2C[C@H](N3C[C@@H]4C[C@H]3CO4)C[C@@H]21 [compound 71, 5-(5-((1R,3r,5S,6S)-3-((1S,4S)-2-oxa-5-azabicyclo[2.2.1]heptan-5-yl)bicyclo[3.1.0]hexan-6-yl)-1-isopropyl-1H-pyrazol-3-yl)-3-(trifluoromethoxy)pyridin-2-amine] | 3.62 nM
